Measurements as given in PubChem BioAssay (NCI).
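Values below derive from 48-hour exposures of cells grown in 96-well plates, with endpoints linearly interpolated between the two concentrations bracketing the appropriate inhibition level. TGI: concentration producing complete growth inhibition.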

How the values were obtained:
Assay in all cases: inhibition of tumour cell growth, NCI panel, 48 h
SK-MEL-5 melanoma = test system: SK-MEL-5 melanoma
SW-620 colon = test system: SW-620 colon
SNB-19 CNS = test system: SNB-19 CNS
NCI-H460 lung = test system: NCI-H460 lung
HCT-15 colon = test system: HCT-15 colon
EKVX NSCLC = test system: EKVX NSCLC
HOP-62 NSCLC = test system: HOP-62 NSCLC
SF-539 CNS = test system: SF-539 CNS
RXF 393 renal = test system: RXF 393 renal
SK-MEL-28 melanoma = test system: SK-MEL-28 melanoma
SF-268 CNS = test system: SF-268 CNS
MDA-MB-231 breast = test system: MDA-MB-231 breast
A498 renal = test system: A498 renal
NCI-H522 lung = test system: NCI-H522 lung
CAKI-1 renal = test system: CAKI-1 renal
HS 578T breast = test system: HS 578T breast
RPMI-8226 leukemia = test system: RPMI-8226 leukemia
MOLT-4 leukemia = test system: MOLT-4 leukemia
MDA-N = test system: MDA-N
UO-31 renal = test system: UO-31 renal
MDA-MB-435 = test system: MDA-MB-435
IGROV1 ovarian = test system: IGROV1 ovarian
LOX IMVI melanoma = test system: LOX IMVI melanoma
SF-295 CNS = test system: SF-295 CNS
NCI/ADR-RES ovarian = test system: NCI/ADR-RES ovarian
HL-60(TB) leukemia = test system: HL-60(TB) leukemia
SR leukemia = test system: SR leukemia
MALME-3M melanoma = test system: MALME-3M melanoma
NCI-H226 lung = test system: NCI-H226 lung
OVCAR-5 ovarian = test system: OVCAR-5 ovarian
CCRF-CEM leukemia = test system: CCRF-CEM leukemia
786-0 renal = test system: 786-0 renal
K-562 leukemia = test system: K-562 leukemia
UACC-257 melanoma = test system: UACC-257 melanoma
U251 CNS = test system: U251 CNS
TK-10 renal = test system: TK-10 renal
PC-3 prostate = test system: PC-3 prostate
MCF7 breast = test system: MCF7 breast
KM12 colon = test system: KM12 colon
ACHN renal = test system: ACHN renal
OVCAR-8 ovarian = test system: OVCAR-8 ovarian
NCI-H23 lung = test system: NCI-H23 lung
HCC-2998 colon = test system: HCC-2998 colon
SN12C renal = test system: SN12C renal
COLO 205 colon = test system: COLO 205 colon
OVCAR-4 ovarian = test system: OVCAR-4 ovarian
A549 NSCLC = test system: A549 NSCLC
DU-145 prostate = test system: DU-145 prostate
SNB-75 CNS = test system: SNB-75 CNS
HCT-116 colon = test system: HCT-116 colon
HT29 colon = test system: HT29 colon
HOP-92 NSCLC = test system: HOP-92 NSCLC
BT-549 breast = test system: BT-549 breast
OVCAR-3 ovarian = test system: OVCAR-3 ovarian
M14 melanoma = test system: M14 melanoma
SK-MEL-2 melanoma = test system: SK-MEL-2 melanoma
T-47D breast = test system: T-47D breast
SK-OV-3 ovarian = test system: SK-OV-3 ovarian
UACC-62 melanoma = test system: UACC-62 melanoma

Measured: TGI

CN(C)c1ccc(C2=C([O-])c3cc(-[n+]4ccccc4)ccc3C2=O)cc1
not listed: M14 melanoma | SK-MEL-2 melanoma | T-47D breast | SK-OV-3 ovarian | UACC-62 melanoma
> 100 µM: all other assays above

CCOC(=O)COc1cc(-c2ccccc2)nc2cc(F)ccc12
not listed: SNB-19 CNS | NCI-H460 lung | NCI-H522 lung | HS 578T breast | UO-31 renal | HL-60(TB) leukemia | ACHN renal
> 100 µM: all other assays above

C#C[C@@H](OC(=O)c1ccc([N+](=O)[O-])cc1)[C@@H]1C[C@H]2O[C@@H]([C@H](C/C=C/CC)OC(=O)c3ccc([N+](=O)[O-])cc3)C[C@H]2O1
not listed: HL-60(TB) leukemia | SR leukemia | MCF7 breast
> 100 µM: all other assays above

O=c1oc2ccccc2c(O)c1Cc1ccccc1Cc1c(O)c2ccccc2oc1=O
not listed: SR leukemia | HCC-2998 colon
> 100 µM: all other assays above

N#Cc1n[nH]n(-c2ccccc2)c1=O
not listed: NCI-H460 lung | SR leukemia | CCRF-CEM leukemia | HOP-92 NSCLC
> 100 µM: all other assays above

O=C(O)c1ccc2[nH]c(=O)oc2c1
not listed: SK-MEL-5 melanoma | NCI-H522 lung | UO-31 renal | HCC-2998 colon | OVCAR-4 ovarian | A549 NSCLC | HOP-92 NSCLC | T-47D breast
> 100 µM: all other assays above

Nc1ccc(Cc2ccc(N)c(C(=O)O)c2)cc1C(=O)O
not listed: MOLT-4 leukemia | DU-145 prostate
> 100 µM: all other assays above
